Experimental data taken from US9873715B2, “Macrolides useful as anticancer agents” (PIERRE FABRE MEDICAMENT, priority 2013, dated 2018).

Experiments:
Format in all cases: cell-based
[1] = tested on: A549: human lung adenocarcinoma cell line; assay: cell survival (ATP-lite luminescence), A549; settings: A549, 48 hours incubation, read-out: EC50 for various tumor cell lines: A549
Description: (§1) Molecules (I-1), (I-2) and (I-3) were identified during a test of antiproliferative activity on a metastatic melanoma cell line, WM266-4.
(§2) The cells are seeded in 96-well plates in phenol red-free RPMI 1640 medium (Seromed) to which is added 10% fetal calf serum (100 μl/well, 1·10^4 to 3·10^4 cells/ml depending on the line studied). After incubation for 24 hours at 37° C. in an incubator (5% CO2), the medium is replaced with the same medium further containing the compound to be tested (various concentrations are used) and then the plates are incubated for an additional 48 hours. Cell survival is evaluated by measuring luminescence after ATP release in the medium using the cell lysis solutions, luciferase and luciferin, included in the ATP-lite-M™ kit as recommended by the manufacturer (Packard, Rungis, France). Each experimental condition was tested at least three times in sextuplicate.

[2] = tested on: BxPC3: human pancreatic adenocarcinoma cell line; assay: cell survival (ATP-lite luminescence), BxPC3; settings: BXPC-3, BxPC3, 48 hours incubation, read-out: EC50 for various tumor cell lines: BxPC3
Description: as §1, §2

[3] = tested on: KB: human oral carcinoma cell line; assay: cell survival (ATP-lite luminescence), KB; settings: 48 hours incubation, read-out: EC50 for various tumor cell lines: KB
Description: as §1, §2

[4] = tested on: KB-V1: vinblastine-resistant human cervix carcinoma cell line; assay: cell survival (ATP-lite luminescence), KB-V1; settings: KB-V1, 48 hours incubation, read-out: EC50 for various tumor cell lines: KB-V1
Description: as §1, §2

[5] = tested on: LoVo: human colon adenocarcinoma cell line; assay: cell survival (ATP-lite luminescence), LoVo; settings: 48 hours incubation, read-out: EC50 for various tumor cell lines: LoVo
Description: as §1, §2

[6] = tested on: Namalwa: Burkitt lymphoma cell line; assay: cell survival (ATP-lite luminescence), Namalwa; settings: 48 hours incubation, read-out: EC50 for various tumor cell lines: Namalwa
Description: as §1, §2

[7] = tested on: SkoV3: human ovarian adenocarcinoma cell line; assay: cell survival (ATP-lite luminescence), SkoV3; settings: SK-OV-3, SkoV3, 48 hours incubation, read-out: EC50 for various tumor cell lines: SkoV3
Description: as §1, §2

| Structure (SMILES) | EC50 [1] | EC50 [2] | EC50 [3] | EC50 [4] | EC50 [5] | EC50 [6] | EC50 [7] |
| --- | --- | --- | --- | --- | --- | --- | --- |
| COCC1OC(OC2CC(OC)CC3C2C(C)=CC2/C=C/C=C/C(C)C(/C=C/c4nc(C(C)CCCC#N)oc4C)OC(=O)CC/C=C(C)\C=C\C23C)C(OC)C(O)C1O (stereo not drawn) [Molecule (I-1)] | 11 pM | 0.22 nM | 0.31 nM | 0.7 nM | 0.04 nM | 0.31 nM | 36000 nM |
| COCC1OC(OC2CC(OC)CC3C2C(C)=CC2/C=C/C=C/C(C)C(/C=C/c4nc(C(C)CCCC#N)oc4C)OC(=O)CC/C=C(C)\C=C\C23C)C(OC)C(OC2OCC(OC)C(O)C2O)C1O (stereo not drawn) [Molecule (I-2)] | < 1 pM | 0.21 nM | 0.3 nM | 0.49 nM | 0.011 nM | 0.36 nM | 1300 nM |
| CNC(=O)OC1C(OC)COC(OC2C(O)C(COC)OC(OC3CC(OC)CC4C3C(C)=CC3/C=C/C=C/C(C)C(/C=C/c5nc(C(C)CCCC#N)oc5C)OC(=O)CC/C=C(C)\C=C\C34C)C2OC)C1O (stereo not drawn) [Molecule (I-3)] | < 1 pM | 0.012 nM | 0.024 nM | 0.73 nM | < 0.01 nM | 0.32 nM | 320 nM |
